Laboratory results published in ChEMBL document CHEMBL1158655, “Plant anticancer agents. IX. Constituents of Hyptis tomentosa” (1979).
In brackets after ≈: the same amount, converted by molar mass.

System: KB
Assay: Cytotoxicity against human KB cells
Type: functional
Conditions: read-out: ED50 (the source's name)

| SMILES | EC50 [µg/mL] |
| --- | --- |
| COc1ccc(-c2cc(=O)c3c(O)c(OC)c(OC)cc3o2)cc1OC | > 100 |
| COc1ccc(-c2cc(=O)c3c(O)c(OC)c(OC)cc3o2)cc1O [EUPATORIN] | > 50 |
| COc1ccc(-c2cc(=O)c3c(O)c(OC)c(OC)c(OC)c3o2)cc1 [GARDENIN B] | 6 (≈ 16.7 µM) |
| c1cc2c(cc1[C@H]1OC[C@H]3[C@@H]1CO[C@@H]3c1ccc3c(c1)OCO3)OCO2 [SESAMIN] | > 100 |
| COc1cc([C@@H]2c3cc4c(cc3C[C@H]3COC(=O)[C@@H]32)OCO4)cc(OC)c1OC [DESOXYPODOPHYLLOTOXIN] | 0.032 (≈ 0.0803 µM) |
| COc1ccc(-c2oc3c(OC)c(OC)c(OC)c(O)c3c(=O)c2OC)cc1 [5-HYDROXYAURANETIN] | 1.8 (≈ 4.63 µM) |
